Data: patent publication US8765676B2, “Calcium sensing receptor modulating compounds and pharmaceutical use thereof” (Leo Pharma A/S, priority 2009, dated 2014)

Legend:
[1] = Pharmacokinetic profile following intravenous administration in rats; assay type: in vivo; details: serum, rat, 0.5 mg/kg
Description: A rat is dosed intravenously with a solution of test compound (0.5 mg/kg) in DMSO/EtOH/H2O/propylene glycol [0.2:0.8:5:4] and blood samples are taken from the sublingual venous plexus after 2 min, 10 min, 30 min, 1 h, 2 h, 4 h and 6 h.
Blood samples are taken in BD Vacutainer SST serum separation tubes, serum is isolated by centrifugation, transferred to micronics tubes and analyzed. Samples are kept at −18° C. pending analysis.
Mass spectrometer (API5000 series) parameters are optimised to analyse for the specific compounds and test injections are performed to confirm the validity of the established generic chromatography method. The generic method is based on fast gradient (2.5 min) analysis on C18 column with mobile phases consisting methanol, ammonium acetate, formic acid and water.
Standards are prepared in rat serum to cover the analytical range 0.1 to 300 ng/ml. Standards, blank serum and study samples are applied to 96 deepwell plate and proteins are precipitated by addition of acetonitrile containing internal standard. Samples are analysed on LC-MS/MS usually over night.
As standard, the 2 and 10 min samples are diluted 10 times with rat serum prior to analysis. Other samples may need similar dilution to keep quantification below 300 ng/ml.
Quantification is performed based on the ratio between analyte and internal standard. The curve should preferably fit a linear curve using a 1/x weighting factor. At least a factor of two is needed to distinguish between blank serum and lowest standard. If this is not the case the quantification of the specific experiment may be raised.
Calculation of T½ requires at least three datapoints describing a true elimination phase. If such three points are not available AUC (0-inf) can not be estimated. In these cases […](0-6 h) is calculated instead.
Total clearance of drug from serum (Cl_iv) is calculated from: Cl—iv=Dose/AUC
Terminal volume of distribution (Vd) is defined as the volume in which the amount of drug would need to be uniformly distributed to produce the observed serum concentration and is calculated from: Vd=T½×Cl—iv/(ln 2)

[2] = Clearance in human liver microsomes; assay type: in vitro ADME; details: 0.5 μM compound, 0.5 mg/mL microsomes, 1 mM NADPH
Description: Test compound concentration is 0.5 μM, microsome concentration is 0.5 mg/mL and NADPH concentration is 1 mM in the incubation. The described method is performed by the liquid handling system Tecan RSP and is based on a 96-well format.
Control incubations with test compound without NADPH and test compound without microsomes are conducted to investigate non-CYP mediated metabolism and stability in phosphate buffer at 37° C., respectively.
The human liver microsomal suspension in phosphate buffer is mixed with NADPH. The mixture is pre-heated (7 min) to 37° C. Test compound is added, and the mixture is incubated for 30 minutes. Incubations are run in duplicate. Samples are withdrawn at predetermined stop times and mixed with methanol containing internal standard (IS) to terminate all enzyme activity and precipitate proteins. A control without NADPH (to detect problems such as nonspecific protein binding, heat instability or non-CYP mediated metabolism) and a control without microsomes (for assessing compound stability in the absence of any active enzymes) are tested.
The percentage of organic solvent in the incubations is less than 1%. Careful inspections of reagents are performed prior to the start of any experiment to ensure all reagents are in solution.
The 96-well plates are centrifuged. Test compound depletion, using a compound specific LC/MS/MS method, is determined.
The logarithm of the peak area ratios of test compound to internal standard (IS) versus incubation time is plotted in a graph.
The rate constant (k) (min^−1) of test compound depletion is calculated from the linear part of the curve and the half-time (t1/2) in minutes can be calculated from the rate constant (Eq. 1). t1/2=(ln 2)/k (Eq. 1)
Intrinsic clearance (Clint) (mL/min/mg protein) is calculated from: Clint=k/c (Eq. 2) where c is the microsomal protein concentration in mg/mL.
Conversion to apparent clearance (Clapp) (mL/min/kg) is done by Eq. 3: Clapp=Clint×a×b/d (Eq. 3) where a, b and d are the scaling factors for normalizing Clint to human body weight.
The following human scaling factors are used:
a: 45 (microsomal protein/liver weight (mg/g))
b: 1500 (liver weight (g))
Apparent clearance below approximately 10 mL/min/kg human body weight (corresponding to extraction ratio of approx. 30%) is considered as low clearance (high metabolic stability). Apparent intrinsic clearance above approximately 60 mL/min/kg human body weight (corresponding to extraction ratio of approx. 75%) is considered as high clearance (low metabolic stability).

human CaSR = target: T1, human CaSR (Homo sapiens, UniProt P41180); assay: Functional whole cell assay (modulation of human CaSR), IP1 accumulation in CHO-K1 cells; assay type: cell-based; details: human CaSR stably expressed on CHO-K1 cells, 2 mM Ca2+, IP-One htrf
T1 sequence (P41180 20-1078): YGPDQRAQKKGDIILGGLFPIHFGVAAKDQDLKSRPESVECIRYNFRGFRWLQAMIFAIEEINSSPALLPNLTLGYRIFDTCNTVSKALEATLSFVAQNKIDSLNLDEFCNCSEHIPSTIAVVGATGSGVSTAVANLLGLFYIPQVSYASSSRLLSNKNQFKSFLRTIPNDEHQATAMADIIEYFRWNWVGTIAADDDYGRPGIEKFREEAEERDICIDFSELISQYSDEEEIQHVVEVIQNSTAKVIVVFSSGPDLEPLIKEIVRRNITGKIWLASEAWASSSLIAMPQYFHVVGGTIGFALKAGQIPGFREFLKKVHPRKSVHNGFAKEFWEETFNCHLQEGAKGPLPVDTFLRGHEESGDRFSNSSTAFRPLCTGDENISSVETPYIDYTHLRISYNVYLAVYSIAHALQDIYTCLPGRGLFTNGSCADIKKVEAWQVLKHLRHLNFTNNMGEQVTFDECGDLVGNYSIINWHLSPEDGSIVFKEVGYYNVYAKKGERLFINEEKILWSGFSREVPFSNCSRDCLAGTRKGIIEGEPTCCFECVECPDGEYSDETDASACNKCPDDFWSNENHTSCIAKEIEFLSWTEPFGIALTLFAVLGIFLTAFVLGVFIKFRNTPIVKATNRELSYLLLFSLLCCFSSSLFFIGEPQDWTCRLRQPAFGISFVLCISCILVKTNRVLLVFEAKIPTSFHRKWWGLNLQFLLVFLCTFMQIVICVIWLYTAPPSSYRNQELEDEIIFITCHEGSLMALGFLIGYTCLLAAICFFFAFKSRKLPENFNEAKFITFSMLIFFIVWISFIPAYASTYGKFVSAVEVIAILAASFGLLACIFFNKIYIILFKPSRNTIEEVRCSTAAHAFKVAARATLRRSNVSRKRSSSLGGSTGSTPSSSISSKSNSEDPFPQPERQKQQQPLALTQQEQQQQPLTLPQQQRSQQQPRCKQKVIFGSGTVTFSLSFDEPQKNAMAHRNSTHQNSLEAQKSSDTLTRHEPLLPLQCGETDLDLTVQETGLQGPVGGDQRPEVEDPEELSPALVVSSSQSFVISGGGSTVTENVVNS
Excerpt: The assay investigates a compound's functional ability to act as a biological positive modulator on the human CaSR. Activation of the receptor expressed on CHO-K1 cells is detected through the G alpha q pathway, the activation of phospholipase C and the accumulation of intracellular inositol phosphate (IP) as described earlier [Sandrine Ferry, Bruno Chatel, Robert H. Dodd, Christine Lair, Danielle Gully, Jean-Pierre, Maffrand, and Martial Ruat. Effects of Divalent Cations and of a Calcimimetic on Adrenocorticotropic Hormone Release in Pituitary Tumor Cells. BIOCHEMICAL AND BIOPHYSICAL RESEARCH COMMUNICATIONS 238, 866-873 (1997)]. The human CaSR is stably expressed on a CHO-K1 cell clone, stimulated with a basal level of calcium and challenged with the tested compound. The level of IP1 is determined using the IP-One htrf kit (Cisbio, France). CHO-K1 cells not transfected with the CaSR fail to elicit an IP1 response upon calcium and/or compound stimulation.
The ORF coding for the human CaSR (genebank: NM_000388) was acquired from Invitrogen Corp, USA and subsequently cloned into the mammalian expression vector pCDA3.1.
CHO-K1 cells were transfected using Lipofectamine according to manufacturer's protocol (400.000 cells/well were seeded in a 6-well plate and transfected after 24 hours using 2 μg DNA and 5 μl lipofectamine). After another 24 hours the cells were detached, seeded and subjected to 1 mg/ml of G-418. Following 7 days growth single clones were picked, the CaSR expression evaluated using the 5C10 antibody against CaSR, the clones with the highest expression were selected and tested for functional response. The preferred clone was continuously cultured according to standard procedures described in ATCC (American Type Culture Collection) protocols for CHO-K1 with the addition of 500 μg/ml G-418.
On the assay day cells were harvested and resuspended to 13*10^6 cells/ml in stimulation buffer (containing: Hepes 10 mM, MgCl2 0.5 mM, KCl 4.2 mM, NaCl 146 mM, glucose 5.5 mM, LiCl 50 mM at pH 7.4). Five μl cell solution were pipetted into a well (white 384-well plate, Perkin Elmer Optiplate) followed by 5 μl compound diluted in a Ca^2+-containing (to the final concentration of 2 mM) buffer. After compound stimulation for 1 hour at 37° C. 10 ul of IP-One assay reagents were added and incubated for another 1 hour at room temperature. Finally the plate was read using a Perkin Elmer EnVision, according to protocol supplied by the IP-One assay kit manufacturer. The FRET ratio was calculated by dividing the 665 nm emission signal with that of the 615 nm.

Vd [1] | Clearance (Clapp) in human liver microsomes [2] | EC50 (human CaSR) | Structure (SMILES)
 | A (A: <20 mL/min/kg) | < 0.5 µM | COc1cc([C@@H](C)NC2CCC(c3ccc(CNS(C)(=O)=O)cc3)C2)ccc1F (mixture of isomers) [Compound 1181, N-[[4-[(1R/S,3R/S)-3-[[(1R)-1-(4-fluoro-3-methoxy-phenyl)ethyl]amino]cyclopentyl]-phenyl]methyl]methanesulfonamide]
10 to 50 L/kg | A (A: <20 mL/min/kg) | < 0.5 µM | COc1cc([C@@H](C)N[C@H]2CC[C@@H](c3ccc(C(=O)N4CCNC(=O)C4)cc3)C2)ccc1F [Compound 1179, 4-(4-{(1R,3S)-3-[(1R)-1-(4-Fluoro-3-methoxy-phenyl)-ethylamino]-cyclopentyl}-benzoyl)-piperazin-2-one]
< 10 L/kg | A (A: <20 mL/min/kg) | < 0.5 µM | COc1cc([C@@H](C)N[C@H]2CC[C@@H](c3ccc(-c4nnn[nH]4)cc3)C2)ccc1F [Compound 1182, (1S,3R)—N-[(1R)-1-(4-fluoro-3-methoxy-phenyl)ethyl]-3-[4-(1H-tetrazol-5-yl)phenyl]cyclopentanamine]
> 50 L/kg | A (A: <20 mL/min/kg) | < 0.5 µM | COc1cc([C@@H](C)N[C@H]2CC[C@@H](c3ccc(S(=O)(=O)NCCO)cc3)C2)ccc1F [Compound 1187, 4-[(1R,3S)-3-[[(1R)-1-(4-fluoro-3-methoxy-phenyl)ethyl]amino]-cyclopentyl]-N-(2-hydroxyethyl)benzenesulfonamide]

Further lines, the compound ahead of its results:

Structure (SMILES) | Vd [1] | Clearance (Clapp) in human liver microsomes [2] | EC50 (human CaSR)
COc1cc([C@@H](C)NC2CC[C@H](c3ccc(C(=O)NC4CCNCC4)cc3)C2)ccc1F (mixture of isomers) [Compound 1157, (1R)—(N)-[(3S)-3-[4-[piperidin-4-ylaminocarbonyl]phenyl]-cyclopentyl]-1-(4-fluoro-3-methoxyphenyl)ethanamine] | 10 to 50 L/kg | A (A: <20 mL/min/kg) | < 0.5 µM
COc1cc([C@@H](C)NC2CC[C@H](c3ccc(S(C)(=O)=O)cc3)C2)ccc1F (stereo partly drawn) [Compound 1014, (1R)—(N)-[(1R/S,3S)-3-(4-methanesulfonylphenyl)cyclopentyl]-1-(4-fluoro-3-methoxyphenyl)ethanamine] |  | A (A: <20 mL/min/kg) | < 0.5 µM
COc1cc([C@@H](C)N[C@H]2CC[C@@H](c3ccc(C(=O)NCCO)cc3)C2)ccc1F [Compound 1176, 4-{(1R,3S)-3-[(1R)-1-(4-Fluoro-3-methoxy-phenyl)-ethylamino]-cyclopentyl}-N-(2-hydroxy-ethyl)-benzamide] |  | A (A: <20 mL/min/kg) | < 0.5 µM
COc1cc([C@@H](C)N[C@H]2CC[C@@H](c3ccc(C(=O)NCCNS(C)(=O)=O)cc3)C2)ccc1F.Cl [Compound 1178, 4-{(1R,3S)-3-[(1R)-1-(4-Fluoro-3-methoxy-phenyl)-ethylamino]-cyclopentyl}-N-(2-methanesulfonylamino-ethyl)-benzamide hydrochloride] | > 50 L/kg | A (A: <20 mL/min/kg) | < 0.5 µM
